Earlier results as cited in patent publication US20170276692A1, “METHODS OF MONITORING FOR ADHERENCE TO BREXPIPRAZOLE (REXULTI®) THERAPY” (Ameritox, LLC, priority 2016, published 2017).

Columns and labels:
[1] = for predominant route of excretion: in vivo
[2] = brexpiprazole is the predominant species

Row | Structure (SMILES) | fraction of an oral dose excreted as unchanged brexpiprazole in feces ([1]; oral dose, feces) | fraction of an oral dose excreted as unchanged brexpiprazole in urine ([1]; oral dose, urine) | oral bioavailability (after oral administration) | time to steady state serum concentrations (days of dosing) | mean elimination half-life (in vivo) | predominant route of excretion [1] | metabolite level in plasma [2]
1 | O=c1ccc2ccc(OCCCCN3CCN(c4cccc5sccc45)CC3)cc2[nH]1 [Brexpiprazole] | 14% | Less than 1% | 95% | 10 to 12 days | 91 h | – | –
2 | O=C(O)CCCOc1ccc2ccc(=O)[nH]c2c1 [OPC3952] | – | – | – | – | – | excreted predominantly in urine | 0-4%
3 | c1cc(N2CCNCC2)c2ccsc2c1 [SF034318] | – | – | – | – | – | excreted predominantly in urine | –
